Experimental findings from article PMC8218751, “Visualizing Borrelia burgdorferi Infection Using a Small-Molecule Imaging Probe” (Journal of Clinical Microbiology, 2021) are described below.

The target in the assay is T. denticola HtpG (Treponema denticola, UniProt P61188). The experiment in a line: FLECS assay, elution of GFP-HtpG from ATP Sepharose. Particulars: in words. The assay is classed as binding. The procedure:
Escherichia coli (strain BL21/DE3) genomic DNA was isolated from a lab culture generated from the cloning/expression bacterium (ThermoFisher catalog no. EC0114) by overnight proteinase K digestion at 56°C, high-salt clarification, and ethanol precipitation. B. burgdorferi (strain B31) and Treponema denticola genomic DNAs were obtained from the American Type Culture Collection (Manassas, VA; ATCC 35210 and 35405, respectively). Human Hsp90-alpha sequences were derived from cDNA generated from total mRNA of the human breast epithelial line, MCF10A. HtpG DNA sequences were PCR cloned from these DNAs using primers designed to allow in-frame cloning with GFP in the isopropyl-β-D-thiogalactopyranoside (IPTG)-inducible bacterial expression vector. 1GFP (pET His6 GFP TEV [tobacco etch virus] LIC [ligation-independent cloning] vector) was a gift from Scott Gradia (Addgene plasmid #29663; http://n2t.net/addgene:29663; RRID:Addgene_29663). Fusion protein cloning was done using the ligation-independent cloning procedure via single-nucleotide T4 DNA polymerase treatment of vector and purified PCR products followed by annealing of complementary single-strand ends before transformation into DH5 E. coli. Proper fusion junctions and fidelity of cloned inserts were confirmed by sequencing, and then the plasmid was transformed into E. coli BL21(DE3) for protein expression. Fusion protein synthesis was induced by incubation with 1 mM IPTG or autoinduction ([17]). Production of GFP-HtpG/Hsp90 was confirmed by identification of GFP and HtpG peptides with matrix-assisted laser desorption ionization (MALDI) using an AB Sciex 5800 time of flight (TOF)/TOF mass spectrometer in the induced band identified on an SDS-PAGE gel. To complete binding curves, several liters of induced cultures was generated, pelleted with centrifugation of 3,150 × g for 15 min, flash frozen in liquid nitrogen, and then stored at −80°C until subsequent fluorescent-linked enzyme chemoproteomic strategy (FLECS) analysis.
γ-linked ATP Sepharose matrix was generated as described previously by the Haystead lab ([18]). BL21 bacterial pellets expressing GFP-fusion proteins of E. coli, B. burgdorferi, and T. denticola HtpGs and human Hsp90 were lysed with B-PER complete bacterial protein extraction reagent (Thermo Scientific catalog number 89821) and centrifuged at 96,000 relative centrifugal force (RCF) (Beckman Coulter type 45 Ti fixed-angle rotor) to pellet insoluble BL21 material. The clarified lysate was added to a column containing ATP-bound Sepharose. The column was washed with low-salt buffer (150 mM NaCl, 25 mM HEPES, pH 7.4, 1 mM dithiothreitol [DTT], and 60 mM MgCl2), followed by high-salt buffer (1 M NaCl, 25 mM HEPES, pH 7.4, 1 mM DTT, 0.1% IGEPAL, and 60 mM MgCl2) and once again low-salt buffer to remove unbound protein. Next, the resin with bound proteins (50 μl) was transferred to a 0.2-μm polyvinylidene fluoride filter 96-well plate (Corning) sitting on top of a black flat-bottomed 96-well catch plate (Corning). Small molecules or ATP was added to each well (50 μl), and the plates were centrifuged using an Eppendorf 5810 centrifuge at 1,100 rpm (220 RCF) for 1 min. The eluted proteins were measured in a fluorescent plate reader to detect the GFP. Some compounds are autofluorescent, and so to confirm fusion protein elution, samples were analyzed by classic SDS-PAGE methods followed by silver staining and MALDI mass spectrometry using a AB Sciex 5800 TOF/TOF mass spectrometer.
Subtle single amino acid differences are present within the catalytic clefts of these proteins, especially between residues that contact the nucleotide. […] We therefore reasoned that these differences may be sufficient to design small molecules that can similarly discriminate HtpG of stealth organisms. To test this hypothesis, we utilized a fluorescent-linked enzyme chemoproteomic strategy (FLECS) assay to test known Hsp90 inhibitors ([18]) for binding to various HtpG constructs. […]

Entries after “also recorded” stand apart in the source; their conditions may differ.

Sequence of T. denticola HtpG (P61188 whole entry): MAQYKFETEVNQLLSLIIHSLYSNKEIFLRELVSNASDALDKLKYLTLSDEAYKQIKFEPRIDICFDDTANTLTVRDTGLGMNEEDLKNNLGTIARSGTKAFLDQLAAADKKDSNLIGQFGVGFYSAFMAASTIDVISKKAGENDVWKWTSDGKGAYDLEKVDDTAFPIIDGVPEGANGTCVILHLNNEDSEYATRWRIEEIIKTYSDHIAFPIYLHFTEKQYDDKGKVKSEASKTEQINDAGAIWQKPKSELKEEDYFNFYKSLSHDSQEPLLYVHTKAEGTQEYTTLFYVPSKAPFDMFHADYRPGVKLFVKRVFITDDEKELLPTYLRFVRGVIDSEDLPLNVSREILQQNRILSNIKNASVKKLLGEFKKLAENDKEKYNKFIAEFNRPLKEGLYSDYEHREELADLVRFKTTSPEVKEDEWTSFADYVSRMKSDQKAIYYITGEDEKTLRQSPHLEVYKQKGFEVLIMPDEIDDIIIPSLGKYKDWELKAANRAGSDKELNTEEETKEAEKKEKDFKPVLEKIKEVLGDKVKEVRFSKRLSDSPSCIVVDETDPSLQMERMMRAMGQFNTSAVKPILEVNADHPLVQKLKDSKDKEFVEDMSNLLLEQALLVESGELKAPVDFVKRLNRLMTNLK

As for `Cc1nn(-c2ccc(C(=O)N(C)C)c(NCCCOCCOCCOCCOCCOCCCNCc3ccc(C(=C\C=C4/N(CCCCS(=O)(=O)O)c5ccccc5C4(C)C)/C=C/C4=[N+](CCCCS(=O)(=O)[O-])c5ccccc5C4(C)C)cc3)c2)c2c1C(=O)CC(C)(C)C2` [HS-198], the “Release of T. denticola HtpG from immobilized ATP resin” value is “unable to release; also recorded: inactive”.
